According to patent US11166907B2, “Non-covalently assembled conductive hydrogel” (DENOVOMATRIX GMBH, priority 2017, dated 2021):

Columns and labels:
[1] = Drug encapsulation and release from conductive hydrogels; type: physicochemical
Procedure: Because the networks of PEG-peptide/PEDOT:PSS hydrogel and the PEG-peptide/rGO:PEDOT:PSS hydrogels are amphipathic, they can bind to both hydrophobic and charged hydrophilic compounds. The encapsulation of hydrophilic and hydrophobic drug compounds was tested. PEDOT:PSS was premixed with either hydrophilic compound doxorubicin or hydrophobic compound paclitaxel, followed by adding 5 kD-PEG-KA7. […] Doxorubicin can be encapsulated with a concentration of 0.8 mg/mL, while 0.1 mg/mL paclitaxel can be encapsulated into the hydrogel. Paclitaxel in excess formed precipitate at the bottom. rGO:PEDOT:PSS was premixed with either doxorubicin or paclitaxel, followed by adding starPEG-KA7. […] Doxorubicin can be encapsulated with a concentration as high as 0.8 mg/mL, while 1.0 mg/mL paclitaxel can be encapsulated into the hydrogel. The hydrogels loaded with drugs were then incubated in PBS, and the release of drugs was monitored.

HeLa cells = assay: Cytotoxic effect of drug released from drug-encapsulating hydrogels; type: cell-based; conditions: drug released from rGO:PEDOT:PSS/starPEG-KA7 hydrogels, diluted 10× or 100×
Procedure: The released compounds were diluted 10× or 100× times for the treatment.

[2] = Electrochemical properties (cyclic voltammetry, impendency); type: physicochemical
Text: The cyclic voltammetry (CV) curve of 5 kD-PEG-KA7/PEDOT:PSS is typical of PEDOT:PSS-based materials, showing the oxidation peak between +500 mV and +650 mV and reduction occurring between −100 mV and −50 mV (FIG. 3A). The structure-function relationship between chemical composition of the modular system and electrochemical properties was investigated

[3] = Hydrogel formation by mixing PEG-peptide conjugate with anionic polymer; type: physicochemical; conditions: (BX)n oligopeptide coupled to PEG-5 k (FIG. 1B)
Procedure: 14-kD-heparin ([…], 2.5 mM) and star-PEG-peptide conjugates (6.25 mM, 3.125 mM) were dissolved in physiologic phosphate buffer solution (1×PBS) water or cell culture medium with 2% fetal bovine serum (FBS). These solutions were dissolved in a ratio of 1:4 heparin:star-PEG-peptide-conjugate by obtaining 0.5 mM or 5 mM 14-kD-heparin and 2.5 mM or 5 mM star-PEG-peptide. The ligand/mol ratio was 2:1, 1:1 and 1:5 relative to the mol ratio of 14-kD-heparin and the star-PEG-peptide-conjugate. The mixtures were incubated within a time frame of one hour to overnight at room temperature […]. The gelling time spanned from present up to several hours depending on the applied peptide motif. A hydrogel was formed when it survived the addition of physiological phosphate buffer solution (1×PBS) pH 7.4 to the mixture after the incubation of the mixture over the prior night without mixing with the added solution.
L1-(BX)n peptides comprising a (BX)n peptide selected from KA7, KA5, KA3, KS7, KG7, RA7, and RG7, where X is alanine, glycine or serine (FIG. 1B), were synthesized. The thiol group of cysteine was used to link the peptides to maleimide-functionalized PEG by Michael-type addition reaction, while the tryptophan was used to facilitate the monitoring during HPLC purification and quantification (supporting information). It was first tested whether sulfated oligosaccharide could be replaced by PEDOT:PSS to form a stable hydrogel. starPEG-KA7 in PBS was mixed with PEDOT:PSS aqueous solution to final concentrations of 2.5 mM and 1%, respectively. […] Without conjugation to the oligopeptide, neither maleimide-functionalized nor amino-functionalized PEG formed a hydrogel with PEDOT:PSS.
Moreover, it is much easier to separate a linear PEG chain with two peptides from that with only one peptide, as compared to purify the starPEG with 4 peptides from a mixture of lower degree of modification. Therefore, in the following study, the hydrogel formation using linear PEG-peptides was investigated. […] To incorporate a cell adhesive motiv into the modular network, the RGDSP (SEQ ID NO: 25) sequence was added as part of the linker to the KA7 oligopeptide. […] L2 contains the RGDSP (SEQ ID NO: 25) sequence.
To test whether the non-covalent assembling approach can also be applied to other conductive polymers, the hydrogel formation using PEG-peptide or starPEG-peptide with graphene derivatives was investigated. While graphene has very poor water solubility, graphene oxide (GO) was used. […] Apparently, the carboxylic acid presented on graphene is not sufficient to form stable crosslinking with positively charged peptide-polymer.
Reducing GO in the present of PSS also led to water-soluble and conductive material rGO/PSS. Hydrogel formation using rGO:PSS or rGO:PEDOT:PSS (FIG. 5A) was tested. […]

[4] = 5 kD-PEG-KA7/PEDOT:PSS hydrogel
[5] = rGO:PEDOT:PSS/starPEG-KA7 hydrogel
[6] = the hydrogel (description, type not specified)

COc1cccc2c1C(=O)c1c(O)c3c(c(O)c1C2=O)C[C@@](O)(C(=O)CO)C[C@@H]3O[C@H]1C[C@H](N)[C@H](O)[C@H](C)O1 [Doxorubicin, doxorubicin]
concentration that can be encapsulated [1, 4]: 0.8 mg/mL
concentration that can be encapsulated [1, 5]: 0.8 mg/mL
concentration that can be encapsulated [1, 6]: 0.8 mg/mL
effect on HeLa cells (HeLa cells): cytotoxic effect

CC(=O)O[C@H]1C(=O)[C@@]2(C)[C@H]([C@H](OC(=O)c3ccccc3)[C@]3(O)C[C@H](OC(=O)[C@H](O)[C@@H](NC(=O)c4ccccc4)c4ccccc4)C(C)=C1C3(C)C)[C@]1(OC(C)=O)CO[C@@H]1C[C@@H]2O [paclitaxel]
concentration that can be encapsulated [1, 4]: 0.1 mg/mL
concentration that can be encapsulated [1, 5]: 1.0 mg/mL
concentration that can be encapsulated [1, 6]: 1 mg/mL
effect on HeLa cells (HeLa cells): cytotoxic effect

CWGGRGDSP [L2, 14]
change of impendency / conductivity compared to 5 kD-PEG-KA7/PEDOT:PSS ([2]; alanine replaced by serine, or RGDSP added within linker): minor effect on the conductivity

KAKAKAKAKA [KA5]
hydrogel formation with PEDOT:PSS [3]: formed homogeneous hydrogels

KAKAKAKAKAKAKA [KA7]
hydrogel formation with PEDOT:PSS [3]: formed homogeneous hydrogels

KSKSKSKSKSKSKS [KS7]
hydrogel formation with PEDOT:PSS [3]: formed homogeneous hydrogels

RARARARARARARA [RA7]
hydrogel formation with PEDOT:PSS [3]: formed homogeneous hydrogels

heparin
effect on conductivity of hydrogel ([2]; 1 mM heparin in hydrogel of 1% PEDOT:PSS and 2.5 mM starPEG-KA7, versus 1% PEDOT:PSS and 2.5 mM 5 kD-PEG-KA7): enhanced the conductivity
